Tested on: human breast cancer cell MDA-MD-231
Assay: Tumor growth of breast cancer cells injected subcutaneously in nude mice
Format: in vivo
Conditions: MDA-MD-231 in nude mice, intraperitoneal, SP-2 10 μg/kg twice a week, docetaxel 7.5 mg/kg once a week, up to 44 days
Procedure: Materials and methods: Nude mice were injected subcutaneously with 5×10^6 human breast cancer cell MDA-MD-231 (cells expressing 90K). One group was injected by intraperitoneal route with phosphate buffer and served as a control. Other groups were treated by intraperitoneal route with SP-2 antibody at a dose of 10 μg/kg twice a week, or a control IgG at the same dose, or with docetaxel at a dose of 7.5 mg/kg once a week, or with a combination of SP-2 and docetaxel. Tumor growth was followed up by measuring lesion diameters up to 44 days after injection. Each group, control and treated, consisted of 8 animals.

## CC(=O)O[C@@]12CO[C@@H]1C[C@H](O)[C@@]1(C)C(=O)[C@H](O)C3=C(C)[C@@H](OC(=O)[C@H](O)[C@@H](NC(=O)OC(C)(C)C)c4ccccc4)C[C@@](O)([C@@H](OC(=O)c4ccccc4)[C@H]21)C3(C)C [docetaxel]
  tumor growth in comparison with control group: significantly reduced tumor growth
